Data set [1] relates to monoamine oxidase (MAO). Particulars: in vitro; cited from earlier work.
Data set [2] deals with chorio-allantoic membrane of hen embryonated egg. The text has this:
The first step was to evaluate the cytotoxicity of the composition in a chicken embryonated egg chorio-allantoic membrane (HET-CAM) assay (FIG. 1).

For data set [3], the system named is male Wistar rats. Nature of the data set: Serum redox state markers after 10 days of oral treatment (Example 1, Phase 1). It is filed as in vivo, rat. The following applies: oral daily 10 days, dose 257 ml/kgPV, mean ± standard error. Here is the method:
(§1) In Phase 1, the experiment consisted of providing the same amount (in mg), per kg of live weight (mg/kg BW), of each of the components of the composition of this invention, as well as the same amount of the composition, and comparing the effects with that of control animals, which received placebo or the antibiotic Enramycin. After 10 days, an evaluation of the immune system of the […] of each of the groups was carried out.
(§2) In this way, different groups of male Wistar rats were randomly marked on the tails for identification. The animals were adapted to the laboratory environment for one week before the treatments. Initially, after a 6 h fasting period, the body weight of the animals was determined and the dose of the Composition and Enramycin […] were calculated. The animals were divided into 11 (eleven) groups of 10 (ten) individuals. The animals were treated daily, orally (used in the animals used as reference), with placebo (vehicle; filtered water 1 mL/kg BW) or with FOS Ingredion (257 mg/kg BW), FOS Yes (257 mg/kg BW) kgPV), GOS Yes (257 mg/kgPV), Yes MOS (257 mg/kgPV), Yes GlucanMOS (257 mg/kgPV), Glucangold Yes (77 mg/kgPV), Mixture 1 (FOS Yes+GOS Yes) (257 mg/kgPV), Composition of this invention (GlucanGold Yes+GOS Yes+FOS Yes, containing 20% of 1,3 and 1,6 beta-glucans, 29% of GOS and 31% of FOS by mass on total mass %) ([…]). An experimental group called naive underwent simulated gavage (without any treatment). All the animals that composed the different experimental groups received the treatment for 10 days. At the end of the experiments, and before euthanasia, the animals were fasted for 6 hours with free access to water. Final body weight was recorded to calculate relative organ weight. Then, under anesthesia with isoflurane (2-3%), 5 mL of blood was obtained from the left jugular vein for the evaluation of biochemical parameters. After this procedure, the animals were euthanized with a supra-pharmacological dose of isoflurane (10-15%) in a saturation chamber. […]

Data set [4] deals with male Wistar rats. The data set can be described thus: Tissue levels of lipoperoxides (LPO) after 10 days of oral treatment (Example 1, Phase 1). The following applies: oral daily 10 days, mean ± standard error. Type of data set: in vivo, rat.
Data set [5] has as its system male Wistar rats. The data set can be described thus: Serum IL-10, IL-6 and TNF-alpha after 10 days of oral treatment (Example 1, Phase 1). Type of data set: in vivo, rat. Particulars: oral daily 10 days, dose 257 mg/kgPV (Enramicine 96 mg/kgPV), mean ± standard error. Here is the method: as §1, §2
Data set [6] concerns Salmonella enterica serovar Enteritidis (phagetype PT4). The data set can be described thus: Salmonella challenge: deaths and serum cytokines (Example 1, phase 2). It is filed as in vivo, rat. Particulars: oral treatment 20 days, dose 257 mg/kgPV (Enramicine 96 mg/kgPV). The text has this: In phase 2, the experiment consisted of repeating the treatments of Phase 1, for 10 days, and inoculating the groups, except the so-called naive (negative control), with a high dose of Salmonella enteritidis. After 20 days, the mortality and the behavior of the immune system of the rats of each group were observed.
In this way, different groups of male rats were randomly marked on the tails for identification. The animals were adapted to the laboratory environment for one week before the beginning of the experiments. After a 6 h fasting period, the animals' body weight was determined and the dose of the prebiotics, the composition of this invention and Enramycin were calculated. The animals were divided into 11 (eleven) groups of 10 (ten) individuals. The animals were treated daily, by the oral route (used in the animals used as reference), with placebo (vehicle; filtered water 1 mL/kg BW) or with FOS ingredion (257 mg/kg BW), FOS Yes (257 mg/kg BW). kgPV), GOS Yes (257 mg/kgPV), Yes MOS (257 mg/kgPV), GlucanMOS (257 mg/kgPV), Glucangold Yes (77 mg/kgPV), Mixture 1 (FOS Yes+GOS Yes) (257 mg/kgPV), Composition of this invention (GlucanGold Yes+GOS Yes+FOS Yes, containing 20% of 1,3 and 1,6 beta-glucans, 31% of GOS and 29% of FOS by mass on mass %) ([…]). All treatments were performed for 20 days. After 10 days from the beginning of treatments, the aforementioned groups received a challenge with 1 mL (10^8 colony forming units [cfu]/mL) of a strain of Salmonella enterica serovar Enteritidis (phagetype PT4), orally (gavage).
An experimental group called naive underwent sham gavage (no treatment) and was not infected with any bacterial strain. At the end of the experiments, and before euthanasia, the surviving animals were fasted for 6 hours with free access to water. Then, under anesthesia with isoflurane (2-3%), 5 mL of blood was obtained from the left jugular vein for the evaluation of biochemical parameters. After this procedure, the animals were euthanized with a supra-pharmacological dose of isoflurane (10-15%) in a saturation chamber. Immediately after euthanasia, target organs were removed for analysis.
Table 8, below, indicates the effects of treatments with different isolated components, with the Composition according to the invention, or with Enramincin, on the serum levels of interleukin 10 (IL-10), IL-6 and tumor necrosis factor alpha (TNF-alpha) from male Wistar rats infected with Salmonella enterica.

[7] abbreviates: dose 257 mg/kgPV (Enramicine 96 mg/kgPV).
The mark [8] stands for this setting: dose 257 ml/kgPV (Enramicine 96 ml/kgPV).
[9] abbreviates: serum, Salmonella-infected male Wistar rats, mean ± standard error.

Marks after values point to notes of the source that are not given here.

For the compound `COc1cc(C2Oc3cc([C@H]4Oc5cc(O)cc(O)c5C(=O)[C@@H]4O)ccc3OC2CO)ccc1O` (stereo partly drawn) [siliinin], the “inhibition of monoamine oxidase (MAO) activity” value in data set [1] is reported as “inhibits the activity of monoamine oxidase (MAO)”.
Consider `[Na+].[OH-]` [NAOH, Sodium Hydroxide], for which, in data set [2], the “hemorrhagic (cytotoxic) effect / irritation on chorio-allantoic membrane” value is given as “lyse blood vessels, resulting in hemorrhage”.
Turning to Enramycin [Enramicine], in data set [3], the Malondialdehyde came out at 2.1 ± 0.15 mmol/L, the Nitrite is 45.3 ± 5.51% and the Nitrotirosine came to 0.007 ± 0.003 µmol/L. Besides, in data set [4] (setting [7]), the “LPO, Kidneys” value is 119.4 ± 7.1 U/mg of protein; the “LPO, Liver” value was 170.1 ± 14.1 U/mg of protein; the “LPO, Spleen” value is 117.5 ± 10.1 U/mg of protein. For the same compound, in data set [4] (setting [8]), the “tissue lipoperoxides (LPO), Cecum” value is on record as 170.2 ± 10.0; the “tissue lipoperoxides (LPO), Colon” value is recorded as 230.2 ± 11.2; the “tissue lipoperoxides (LPO), Ileum” value is 117.9 ± 14.2. In addition, in data set [5], the IL-6 worked out at 210.5 ± 25.5 pg/mL, the IL-10 came out at 15.3 ± 5.1 pg/mL and the TFN-alfa stood at 8.0 ± 1.5 pg/mL. Further, in data set [6] (male Wistar rats, Salmonella enterica challenge (1 mL, 10^8 cfu/mL) after 10 days), the Deaths was found to be 0%. Also, in data set [6] (setting [9]), the IL-6 was determined as 249.7 ± 37.7 pg/mL, the IL-10 was 16.6 ± 0.9^b pg/ml and the TFN-alfa was 10.7 ± 1.1^b pg/ml.

Values taken from patent US20240358782A1, “Regulatory Composition of the Neuro-Immune-Endocrine and Cortisol Reducing System of the Human Being” (priority 2020, published 2024).
